According to US8748430B2, “Pyrrolidin-3yl-methylamine quinoxaline derivatives” (Hoffmann-La Roche Inc, priority 2008, dated 2014):

molecular target: T1, human orexin-2 (hOX2) receptor (Homo sapiens, UniProt O43614); experiment: Intracellular Ca2+ mobilization assay (FLIPR), antagonism of orexin-A at EC80; format: cell-based; details: CHO(dHFr-) cells stably expressing hOX2; orexin-A at EC80 as agonist; antagonist applied 25 min before; Kb=IC50/(1+[A]/EC50); read-out: Kb (μM) OX2R (human)
T1 construct: expressed in transfected cells
T1 sequence (O43614 1-444): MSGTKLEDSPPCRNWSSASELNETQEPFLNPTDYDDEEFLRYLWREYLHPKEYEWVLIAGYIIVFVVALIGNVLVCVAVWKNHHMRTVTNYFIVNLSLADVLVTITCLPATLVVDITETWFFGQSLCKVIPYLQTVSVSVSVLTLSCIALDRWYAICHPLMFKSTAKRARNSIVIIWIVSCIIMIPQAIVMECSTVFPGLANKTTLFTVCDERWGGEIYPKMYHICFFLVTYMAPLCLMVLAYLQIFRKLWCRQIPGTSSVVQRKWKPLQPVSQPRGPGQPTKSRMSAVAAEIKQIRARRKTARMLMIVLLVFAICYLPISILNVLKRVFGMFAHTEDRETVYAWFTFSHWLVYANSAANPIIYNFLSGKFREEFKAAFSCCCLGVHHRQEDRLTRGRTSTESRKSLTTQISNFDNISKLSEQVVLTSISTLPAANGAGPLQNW
Method: Intracellular Ca^2+ Mobilization Assay
The Chinese Hamster Ovary (dHFr-) mutant cell line stably expressing human orexin-1 (hOX1) or human orexin-2 (hOX2) receptors were maintained in Dulbecco's Modified Eagle Medium (1×) with GlutaMax™1, 4500 mg/L D-Glucose and Sodium Pyruvate (Catalog No. 31966-021, Invitrogen, Carlsbad, Calif.), 5% dialyzed fetal calf serum (Catalog No. 26400-044), 100 μg/ml penicillin and 100 μg/ml streptomycin. The cells were seeded at 5×10^4 cells/well in the poly-D-lysine treated, 96-well, black/clear-bottomed plates (Catalog No. BD356640, BD Biosciences, Palo Alto, Calif.). 24 h later, the cells were loaded for 1 h at 37° C. with 4 μM Flou-4 acetoxymethyl ester (Catalog No. F-14202, Molecular Probes, Eugene, Oreg.) in FLIPR buffer (1×HBSS, 20 mM HEPES, 2.5 mM Probenecid). Hanks' Balanced Salt Solution (HBSS) (10×) (catalog No. 14065-049) and HEPES (1M) (catalog No. 15630-056) were purchased from Invitrogen, Carlsbad, Calif. Probenecid (250 mM) (catalog No. P8761) was from Sigma, Buchs, Switzerland. The cells were washed five times with FLIPR buffer to remove excess dye and intracellular calcium mobilization, [Ca^2+]i were measured using a Fluorometric Imaging Plate Reader (FLIPR-96, Molecular Devices, Menlo Park, Calif.) as described previously (Malherbe et al., Mol. Pharmacol., 64, 823-832, 2003). Orexin A (catalog No. 1455, Toris Cookson Ltd, Bristol, UK) was used as agonist. Orexin A ([…] stock solution in DMSO) was diluted in FLIPR buffer+0.1% BSA. The EC50 and EC80 values of orexin-A were measured daily from standard agonist concentration-response curves in CHO(dHFr-)-OX1R and -OX2R cell lines. All compounds were dissolved in 100% DMSO. Inhibition curves were determined by addition of 11 concentrations (0.0001-10 μM) of inhibitory compounds and using EC80 value of orexin-A as agonist (a concentration which gave 80% of max agonist response, determined daily). The antagonists were applied 25 min (incubation at 37° C.) before the application of the agonist. Responses were measured as peak increase in fluorescence minus basal, normalized to the maximal stimulatory effect induced by EC80 value of orexin-A or orexin-B. Inhibition curves were fitted according to the Hill equation: y=100/(1+(x/IC50)^nH), where nH=slope factor using Excel-fit 4 software (Microsoft). Kb values were calculated according to the following equation Kb=IC50/(1+[A]/EC50) where A is the concentration of agonist added which is very close to agonist EC80 value, and IC50 and EC50 values were derived from the antagonist inhibition and orexin-A or B agonist curves, respectively.

| Kb [µM] | Compound |
| --- | --- |
| 0.0772 | O=C(c1ccccc1OC(F)(F)C(F)F)N1CC[C@@H](CNc2nc3cccc(F)c3o2)C1 [Example 20, {(S)-3-[(7-Fluoro-benzooxazol-2-ylamino)-methyl]-pyrrolidin-1-yl}-[2-(1,1,2,2-tetrafluoro-ethoxy)-phenyl]-methanone] |
| 0.0839 | O=C(c1ccccc1OC(F)(F)C(F)F)N1CC[C@@H](CNc2cnc3cc(Cl)ccc3n2)C1 [Example 27, {(S)-3-[(6-Chloro-quinoxalin-2-ylamino)-methyl]-pyrrolidin-1-yl}-[2-(1,1,2,2-tetrafluoro-ethoxy)-phenyl]-methanone] |
| 0.123 | O=C(c1cnoc1-c1ccccc1)N1CC[C@@H](CNc2nc3cccc(F)c3o2)C1 [Example 23, {(S)-3-[(7-Fluoro-benzooxazol-2-ylamino)-methyl]-pyrrolidin-1-yl}-(5-phenyl-isoxazol-4-yl)-methanone] |
| 0.396 | Cc1ccc(C(F)(F)F)c(C(=O)N2CC[C@@H](CNc3nc4cccc(F)c4o3)C2)c1 [Example 21, {(S)-3-[(7-Fluoro-benzooxazol-2-ylamino)-methyl]-pyrrolidin-1-yl}-(5-methyl-2-trifluoromethyl-phenyl)-methanone] |
| 0.407 | Cc1onc(-c2ccccc2)c1C(=O)N1CC[C@@H](CNc2cnc3cc(Cl)ccc3n2)C1 [Example 29, {(S)-3-[(6-Chloro-quinoxalin-2-ylamino)-methyl]-pyrrolidin-1-yl}-(5-methyl-3-phenyl-isoxazol-4-yl)-methanone] |
| 0.147 | O=C(c1cnoc1-c1ccccc1)N1CC[C@@H](CNc2nc3ccc(Cl)cc3o2)C1 [Example 16, {(S)-3-[(6-Chloro-benzooxazol-2-ylamino)-methyl]-pyrrolidin-1-yl}-(5-phenyl-isoxazol-4-yl)-methanone] |
| 0.0566 | Cc1onc(-c2ccccc2)c1C(=O)N1CC[C@@H](CNc2nc3cccc(F)c3o2)C1 [Example 22, {(S)-3-[(7-Fluoro-benzooxazol-2-ylamino)-methyl]-pyrrolidin-1-yl}-(5-methyl-3-phenyl-isoxazol-4-yl)-methanone] |
| 0.185 | COc1ccc(C)cc1C(=O)N1CC[C@@H](CNc2cnc3cc(Cl)ccc3n2)C1 [Example 32, {(S)-3-[(6-Chloro-quinoxalin-2-ylamino)-methyl]-pyrrolidin-1-yl}-(2-methoxy-5-methyl-phenyl)-methanone] |
| 0.165 | COc1ccc(C)cc1C(=O)N1CC[C@@H](CNc2nc3ccc(F)cc3s2)C1 [Example 10, {(S)-3-[(6-Fluoro-benzothiazol-2-ylamino)-methyl]-pyrrolidin-1-yl}-(2-methoxy-5-methyl-phenyl)-methanone] |
| 0.178 | O=C(c1ccccc1OC(F)(F)F)N1CC[C@@H](CNc2cnc3cc(Cl)ccc3n2)C1 [Example 26, {(S)-3-[(6-Chloro-quinoxalin-2-ylamino)-methyl]-pyrrolidin-1-yl}-(2-trifluoromethoxy-phenyl)-methanone] |
| 0.331 | Cc1ccc(C(F)(F)F)c(C(=O)N2CC[C@@H](CNc3cnc4cc(Cl)ccc4n3)C2)c1 [Example 28, {(S)-3-[(6-Chloro-quinoxalin-2-ylamino)-methyl]-pyrrolidin-1-yl}-(5-methyl-2-trifluoromethyl-phenyl)-methanone] |
| 0.0819 | Cc1onc(-c2ccccc2)c1C(=O)N1CC[C@@H](CNc2nc3ccc(Cl)cc3o2)C1 [Example 15, {(S)-3-[(6-Chloro-benzooxazol-2-ylamino)-methyl]-pyrrolidin-1-yl}-(5-methyl-3-phenyl-isoxazol-4-yl)-methanone] |
| 0.129 | O=C(c1ccccc1OC(F)(F)F)N1CC[C@@H](CNc2nc3ccc(F)cc3s2)C1 [Example 4, {(S)-3-[(6-Fluoro-benzothiazol-2-ylamino)-methyl]-pyrrolidin-1-yl}-(2-trifluoromethoxy-phenyl)-methanone] |
| 0.0318 | O=C(c1ccccc1OC(F)(F)C(F)F)N1CC[C@@H](CNc2nc3ccc(F)cc3s2)C1 [Example 5, {(S)-3-[(6-Fluoro-benzothiazol-2-ylamino)-methyl]-pyrrolidin-1-yl}-[2-(1,1,2,2-tetrafluoro-ethoxy)-phenyl]-methanone] |
| 0.214 | O=C(c1ccccc1OC(F)(F)F)N1CC[C@@H](CNc2nc3ccc(Cl)cc3o2)C1 [Example 12, {(S)-3-[(6-Chloro-benzooxazol-2-ylamino)-methyl]-pyrrolidin-1-yl}-(2-trifluoromethoxy-phenyl)-methanone] |
| 0.0292 | COc1cccc(OC)c1C(=O)N1CCC(CNc2nc3ccc(Cl)cc3o2)C1 (stereo not shown) [Example 1, {3-[(6-Chloro-benzooxazol-2-ylamino)-methyl]-pyrrolidin-1-yl}-(2,6-dimethoxy-phenyl)-methanone] |
| 0.565 | Cc1ccc(Cl)c(C(=O)N2CC[C@@H](CNc3nc4ccc(Cl)cc4o3)C2)c1 [Example 17, {(S)-3-[(6-Chloro-benzooxazol-2-ylamino)-methyl]-pyrrolidin-1-yl}-(2-chloro-5-methyl-phenyl)-methanone] |
| 0.355 | COc1ccc(C)cc1C(=O)N1CC[C@@H](CNc2nc3ccc(Cl)cc3o2)C1 [Example 18, {(S)-3-[(6-Chloro-benzooxazol-2-ylamino)-methyl]-pyrrolidin-1-yl}-(2-methoxy-5-methyl-phenyl)-methanone] |
| 0.726 | O=C(c1ccccc1C(F)(F)F)N1CC[C@@H](CNc2nc3ccc(Cl)cc3o2)C1 [Example 11, {(S)-3-[(6-Chloro-benzooxazol-2-ylamino)-methyl]-pyrrolidin-1-yl}-(2-trifluoromethyl-phenyl)-methanone] |
| 0.0573 | COc1cccc(OC)c1C(=O)N1CC[C@@H](CNc2nc3ccc(Cl)cc3o2)C1 [Example 2, {(S)-3-[(6-Chloro-benzooxazol-2-ylamino)-methyl]-pyrrolidin-1-yl}-(2,6-dimethoxy-phenyl)-methanone] |
| 0.0623 | Cc1onc(-c2ccccc2)c1C(=O)N1CC[C@@H](CNc2nc3ccc(F)cc3s2)C1 [Example 7, {(S)-3-[(6-Fluoro-benzothiazol-2-ylamino)-methyl]-pyrrolidin-1-yl}-(5-methyl-3-phenyl-isoxazol-4-yl)-methanone] |
| 0.149 | O=C(c1ccccc1OC(F)(F)C(F)F)N1CC[C@@H](CNc2nc3ccc(Cl)cc3o2)C1 [Example 13, {(S)-3-[(6-Chloro-benzooxazol-2-ylamino)-methyl]-pyrrolidin-1-yl}-[2-(1,1,2,2-tetrafluoro-ethoxy)-phenyl]-methanone] |
| 0.207 | O=C(c1ccccc1C(F)(F)F)N1CC[C@@H](CNc2nc3ccc(F)cc3s2)C1 [Example 3, {(S)-3-[(6-Fluoro-benzothiazol-2-ylamino)-methyl]-pyrrolidin-1-yl}-(2-trifluoromethyl-phenyl)-methanone] |
| 0.69 | O=C(c1ccccc1OC(F)(F)F)N1CC[C@@H](CNc2nc3cccc(F)c3o2)C1 [Example 19, {(S)-3-[(7-Fluoro-benzooxazol-2-ylamino)-methyl]-pyrrolidin-1-yl}-(2-trifluoromethoxy-phenyl)-methanone] |
| 0.754 | Cc1ccc(Cl)c(C(=O)N2CC[C@@H](CNc3nc4cccc(F)c4o3)C2)c1 [Example 24, (2-Chloro-5-methyl-phenyl)-{(S)-3-[(7-fluoro-benzooxazol-2-ylamino)-methyl]-pyrrolidin-1-yl}-methanone] |
